# Source: ChEMBL document CHEMBL4610049, “Structural modification of the aryl sulfonate ester of cjoc42 for enhanced gankyrin binding and anti-cancer activity” (Bioorg Med Chem Lett, 2020)
# The source made the active and inactive calls. No cut-off for these calls is given here.
# What was measured:
# [1] = molecular target: T1, 26S proteasome non-ATPase regulatory subunit 10 (Homo sapiens) (UniProt O75832); experiment: Binding affinity to gankyrin (unknown origin) assessed as fold increase in change in melting temperature at 300 uM by thermal shift assay relative to control
# T1 sequence (whole entry): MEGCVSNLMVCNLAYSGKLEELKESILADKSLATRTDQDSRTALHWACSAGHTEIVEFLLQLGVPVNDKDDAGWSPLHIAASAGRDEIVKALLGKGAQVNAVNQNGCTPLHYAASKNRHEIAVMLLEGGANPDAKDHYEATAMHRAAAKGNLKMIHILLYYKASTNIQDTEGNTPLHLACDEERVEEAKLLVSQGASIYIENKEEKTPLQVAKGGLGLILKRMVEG
# HepG2 [2] = experiment: Antiproliferative activity against human HepG2 cells assessed as reduction in cell viability incubated for 72 hrs by MTT assay; type: functional, cell-based; settings: HepG2, 72 h
# Hep 3B2 [3] = experiment: Antiproliferative activity against human Hep3B cells assessed as reduction in cell viability incubated for 72 hrs by MTT assay; type: functional, cell-based
# Hep 3B2 [4] = experiment: Antiproliferative activity against human Hep3B cells assessed as reduction in cell viability at 50 uM incubated for 72 hrs by MTT assay relative to control; type: functional
# HepG2 [5] = experiment: Antiproliferative activity against human HepG2 cells assessed as reduction in cell viability at 50 uM incubated for 72 hrs by MTT assay relative to control; type: functional; settings: HepG2, 72 h
Activity [1],IC50 (HepG2 [2]),Compound,IC50 (Hep 3B2 [3]),also measured
Active,–,COC(=O)c1ccc(-n2cc(CCCOS(=O)(=O)c3cccc(C#N)c3)nn2)cc1,–,–
Active,–,COC(=O)c1ccc(-n2cc(CCCOS(=O)(=O)c3ccc(C#N)cc3)nn2)cc1,–,–
–,> 50 µM,COC(=O)c1ccc(-n2cc(CCCOS(=O)(=O)c3cccc(F)c3)nn2)cc1,> 50 µM,inhibition at 50 µM (Hep 3B2 [4]): 0%; fold change (FC) [1]: 1.4; inhibition at 50 µM (HepG2 [5]): 0%
inactive,–,CCc1cccc(S(=O)(=O)OCCCc2cn(-c3ccc(C(=O)OC)cc3)nn2)c1,–,–
Active,> 50 µM,COC(=O)c1ccc(-n2cc(CCCOS(=O)(=O)c3ccc(C)cc3)nn2)cc1,> 50 µM,inhibition at 50 µM (Hep 3B2 [4]): 0%; inhibition at 50 µM (HepG2 [5]): 0%
inactive,–,COC(=O)c1ccc(-n2cc(CCCOS(=O)(=O)c3cccc(C)c3)nn2)cc1,–,–
inactive,–,CNC(=O)c1ccc(S(=O)(=O)OCCCc2cn(-c3ccc(C(=O)OC)cc3)nn2)cc1,–,–
Active,–,CCc1ccc(S(=O)(=O)OCCCc2cn(-c3ccc(C(=O)OC)cc3)nn2)cc1,–,–
–,36.9 µM,COC(=O)c1ccc(-n2cc(CCCOS(=O)(=O)c3cccc(OC)c3)nn2)cc1,20.9 µM,fold change (FC) [1]: 1.9
inactive,–,COC(=O)c1ccc(-n2cc(CCCOS(=O)(=O)c3ccc(C(C)C)cc3)nn2)cc1,–,–
–,46.2 µM,COC(=O)c1ccc(-n2cc(CCCOS(=O)(=O)c3ccc(-c4ccccc4)cc3)nn2)cc1,26 µM,fold change (FC) [1]: 2.3
–,17.5 µM,COC(=O)c1ccc(-n2cc(CCCOS(=O)(=O)c3ccc(I)cc3)nn2)cc1,25.3 µM,fold change (FC) [1]: 1.7
inactive,–,COC(=O)c1ccc(-n2cc(CCCOS(=O)(=O)c3ccccc3)nn2)cc1,–,–
Active,–,COC(=O)c1ccc(-n2cc(CCCOS(=O)(=O)c3ccc(C(=O)OC)cc3)nn2)cc1,–,–
inactive,–,COC(=O)c1ccc(-n2cc(CCCOS(=O)(=O)c3cccc(Cl)c3)nn2)cc1,–,–
inactive,–,COC(=O)c1ccc(-n2cc(CCCOS(=O)(=O)c3cccc(C(=O)OC)c3)nn2)cc1,–,–
–,> 50 µM,COC(=O)c1ccc(-n2cc(CCCOS(=O)(=O)c3ccccc3C)nn2)cc1,> 50 µM,inhibition at 50 µM (Hep 3B2 [4]): 0%; fold change (FC) [1]: 2; inhibition at 50 µM (HepG2 [5]): 0%
Active,–,COC(=O)c1ccc(-n2cc(CCCOS(=O)(=O)c3ccc(OC)cc3)nn2)cc1,–,–
